# How the values were obtained:
# [1] = molecular target: T1, reuptake of tritiated serotonin ([3H]5HT), rat whole brain minus cerebellum synaptosomes (Rattus norvegicus, UniProt P31652); type: biochemical
# T1 construct: homogenization of rat caudate (DA) or whole brain minus cerebellum (5HT); from tissue; host or cells: rat whole brain minus cerebellum, synaptosomes
# [2] = test system: dopamine transporter versus serotonin and norepinephrine transporters; conditions: Rothman et al. (1993); cited from earlier work
# [3] = test system: dopamine (DA) and serotonin (5-HT) in nucleus accumbens dialysate; assay: In vivo microdialysis with methamphetamine challenge; design: species or system male Sprague-Dawley rats; conditions: 0.7 ml/kg im
# [4] = test system: food-maintained and cocaine-maintained responding in rhesus monkeys; conditions: rhesus monkey, in vivo
# [5] = test system: food-maintained and cocaine-maintained responding in rhesus monkeys; conditions: comparison value for the shorter-acting drug; cited from earlier work
# [6] = methamphetamine 1 mg/kg iv four days later, FIG. 4 (percent of baseline)
# T1 sequence (P31652 whole entry): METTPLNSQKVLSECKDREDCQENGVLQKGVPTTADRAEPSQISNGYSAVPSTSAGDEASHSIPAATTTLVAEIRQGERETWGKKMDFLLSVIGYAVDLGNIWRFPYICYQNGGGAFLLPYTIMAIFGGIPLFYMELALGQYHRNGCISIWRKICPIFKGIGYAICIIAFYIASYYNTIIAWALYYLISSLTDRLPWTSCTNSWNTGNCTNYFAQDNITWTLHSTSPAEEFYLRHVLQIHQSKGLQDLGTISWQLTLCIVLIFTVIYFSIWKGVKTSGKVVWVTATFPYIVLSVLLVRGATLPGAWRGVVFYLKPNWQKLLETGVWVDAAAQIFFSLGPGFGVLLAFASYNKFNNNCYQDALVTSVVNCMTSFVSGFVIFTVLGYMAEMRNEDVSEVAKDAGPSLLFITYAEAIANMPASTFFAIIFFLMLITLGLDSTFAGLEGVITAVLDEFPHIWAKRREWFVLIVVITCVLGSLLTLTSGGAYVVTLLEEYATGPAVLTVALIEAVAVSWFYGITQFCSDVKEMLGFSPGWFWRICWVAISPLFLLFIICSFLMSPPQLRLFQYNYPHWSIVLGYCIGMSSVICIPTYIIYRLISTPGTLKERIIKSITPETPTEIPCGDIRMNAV
smiles,measurement,setting,value
NCCc1c[nH]c2ccc(O)cc12 [[^3H]5HT],Km,[1],0.0174 ± 0.0008 µM
"c1ccc(CCCN2CCCN(CCOC(c3ccccc3)c3ccccc3)CC2)cc1 [LR1111, 1-[2-(diphenyl-methoxy)-ethyl]-4-(3-phenylpropyl)homopiperazine]",selectivity for the dopamine transporter over the serotonin and norepinephrine transporters,[2],"over 4,000 fold"
"CCCCCCCCCC(=O)OC(CCN1CCN(CCOC(c2ccc(F)cc2)c2ccc(F)cc2)CC1)c1ccccc1 (racemic) [compound 5*, (±)1-[2-Bis-(p-fluorophenyl)methoxy]ethyl]-4-(3-hyroxy-3-phenylpropyl)piperazine decanoate ester]",increase of basal levels of dopamine (DA),"[3]; four days after injection, FIG. 3",two-fold
same,ability of methamphetamine to increase dopamine levels,"[3]; methamphetamine 1 mg/kg iv four days later, FIG. 3 (picogram/fraction)",essentially eliminated
same,ability of methamphetamine to increase dopamine,[3]; [6],blunted
same,ability of methamphetamine to increase serotonin (5-HT),[3]; [6],blunted
same,duration of sustained and selective effect on cocaine-maintained responding,[4],almost thirty days
"Fc1ccc(C(OCCN2CCN(CCCc3ccccc3)CC2)c2ccc(F)cc2)cc1 [GBR 12909, 1-[2-[bis(4-fluorophenyl)methoxy]ethyl]-4-[3-phenylpropyl]piperazine]",duration of effect on cocaine-maintained responding,[5],4 to 6 h
